# Patent US8906694B2, “Organometallic fluorescent sensors for nitric oxide detection and imaging” (The Florida International University Board of Trustees, priority 2012, dated 2014)
# What was measured:
# [1] = test system: Rat Aortic Endothelial Cells; test: Fluorescence microscopy NO imaging in living cells with NO donor addition; format: cell-based; conditions: for absorptivity of the dye into the cells: living cells, fluorescence microscopy
# Source text: Rat Aortic Endothelial Cells acquired from Cell Biologics were used for the cell based experiments. Fetal Bovine Serum (FBS) and DMSO were bought from ATCC. Penicillin-Streptomycin and endothelial cell growth supplement from bovine neural tissue were bought from Sigma Aldrich. DMEM/F-12 medium, PBS and Trypsin (0.05% EDTA) were bought from Invitrogen. Cell culture flasks and dishes were bought from Fisher Scientific. MAHMA/NO was bought from Cayman Chemicals.
# Cell culture: Rat Aortic Endothelial Cells were grown (passage 4-10) in DMEM/F-12 medium supplemented with 10% FBS, 1% penicillin-streptomycin, and endothelial cell growth supplement in a humidified tissue culture incubator at 37° C. equilibrated with 95% air/5% CO2. For experimentation, cells were cultured in 35×10 mm dishes seeded with 2×10^5 cells and used at 60-80% confluency.
# After the loading phase with the organometallic Re-complex (10 μM for 45 min) cells were rinsed off excess dye using PBS buffer solution. This was followed by an exposure to 10 μM MAHMA/NO for 10-15 minutes. Images were then acquired with a fluorescence microscope (Olympus IX 81 fitted with a CCD camera (Qimaging) at 350 nm (excitation) and 450 nm (emission) with 20× zoom, with exposition time of 2668 ms. The data were analyzed with IPLAB software (BioVision Technologies).
# Conditions of incubator: 37° C., 21% O2, 5% CO2, with cell culture harvested and plated for at least 24 hours.
# […] of Re(phen)(THF)(CO)2(CF3SO3) or Re(phen)(CO)2(PPh3)(CF3SO3) (1.6×10^−3 M) was prepared in THF. 62.5 μL of this solution was added to 138 μL of acetone. This new solution was added to 800 μL of 10 mM PBS (Phosphate Buffer Saline) buffer solution, resulting in v/v ratios of 6% THF, 14% acetone, and 80% Buffer. This new solution was further diluted 1/10 with PBS Buffer before added to the cells, resulting to final solvent composition of 0.6% THF, 1.4% acetone, and 98% v/v aqueous buffer. This final solution contains the organometallic Re dye at 10 μM concentration, (solution A) before contact with NO donor solutions.
# A blank (0 μM NO donor: MAHMA NONOate) and 3 stock solutions (100 μM, 500 μM, 1 mM) MAHMA NONOate were prepared in NaOH 0.01M, which after addition to the media result to final NO donor concentrations of 0 μM, 1 μM, 5 μM, 10 μM.
# The old media were poured out from the plates. The plates were rinsed 2 times with 1 mL PBS 10 mM. The next reagents were added to each plate in the following order: […] of DMEM/FBS/Penicillin Media, […] of PBS 10 mM, and 100 μL of Re complex stock in 20% organic mixture. The plates were incubated for 75 minutes.
# The reactive media was poured out from the plate. The plates were rinsed 2 times with 1 mL PBS 10 mM. […]
# [2] = Fluorescence spectroscopy NO sensing in solution after addition of NO donor MAHMA-NONOate; conditions: NO donor MAHMA-NONOate in buffer solution; aerobic and anaerobic conditions for the THF complex
# Experimental: A pilot Re(I)-phenanthroline complex: Re(phen)(CO)2(THF)(CF3SO3) complex was synthesized from Re(phen)(CO)3(CF3SO3) (Scheme 3) by photochemical substitution of a CO with THF in situ and was tested for NO sensing by fluorescence spectroscopy after the addition of the NO donor: MAHMA-NONOate (Cayman Pharmaceuticals) at the are 10 μM-200 μM range (FIGS. 1 and 2). […] It is worth mentioning the dye is highly sensitive to NO, since it is only used at a concentration of only 10 μM, and responds to concentrations of NO donor in the μM level as well (FIG. 5). […] Furthermore live cell experiments with Re(phen)(CO)2(THF)(CF3SO3) prepared by thermal substitution gave similar results.
# A stepwise experimental protocol for preparation and testing of the Rhenium organometallic sensor and comparison with existing technology is as follows: • 1) Preparation of a stock solution of a 2.0 mM NO donor solution by dissolving 0.6 mg of (Z)-1-[N-Methyl-N-[6-(N-methylammoniohexyl)amino]]diazen-1-ium-1,2-diolate (Methylamine hexamethylene methylamine NONOate or MAHMA NONOate) in 0.01 M NaOH. Solution is kept at 4° C. until use. • 2) Preparation of a 1.0 mM stock solution of probe LRe(CO)3(OSO2CF3) in DMSO or THF (L is phen or substituted analog). For the Re probe the solution is undergoing the following steps: […]
SMILES,toxicity to the cells ([1]; at the 10 μM level),absorptivity of the dye into the cells ([1]; dye 10 μM),fluorescent response to NO donor addition in solution [2],"fluorescence response to NO donor addition in living cells ([1]; dye 10 μM, MAHMA-NONOate 0-10 μM, λexc=350 nm, λem=450 nm)"
O=[C]=[Re]1(=[C]=O)([O]S(=O)(=O)C(F)(F)F)([PH](c2ccccc2)(c2ccccc2)c2ccccc2)[N]2C=CC=c3ccc4c(c32)[N]1C=CC=4 [Re(phen)(CO)2(PPh3)(CF3SO3)],no toxicity,good dye absorptivity into cells,shows response to NO addition,–
C1CCOC1.O=[C]=[Re]1(=[C]=O)([O]S(=O)(=O)C(F)(F)F)[N]2C=CC=c3ccc4c(c32)[N]1C=CC=4 [Re(phen)(CO)2(THF)(CF3SO3)],–,good absorptivity,responds directly to NO,direct response
